Reference: US6413937B1, “Combinations for use in increasing the potency of a substrate for multidrug resistance related protein” (Dublin City University and Enterprise Ireland, priority 1996, dated 2002)

How the values were obtained:
[1] = test system: OAW42-SR cell line; test: miniaturised in vitro colorimetric cell survival assay, LRP overexpressing OAW42-SR; format: cell-based, human; settings: alone or + Adriamycin 147 ng/ml
Procedure: All the results presented in this Example for the DLKP, A549 and OAW42-SR cell lines were derived using the same miniaturised in vitro calorimetric assay system. On Day 1 of the assay 1000 cells/well/100 μl were plated into 96-well plates. Cells were allowed to attach overnight and cell viability was visually assessed. On Day 2 the two drugs (i.e. NSAID plus chemotherapeutic drug) to be analysed were added onto the cells. The individual drugs were added separately in 50 μl quantities (4× stocks, to take into account the dilution effect of having 200 μl final volume in each well). The drugs were left on the cells for five further days (Day 7) and cell number was determined using the acid phosphatase end-point assay which uses p-nitrophenol phosphate as substrate (Martin, A. and Clynes, M. (1991) In Vitro Dev. Biol., 27A, 183-184). On Day 7 the culture medium was removed from the cells and they were washed once with phosphate buffered saline (PBS). […] After the incubation period 50 μl of 1N NaOH was added to each well to develop the colour. The plates were then read at 405 nm (reference 620 nm) on an ELISA plate-reader. […] All results are the cell survival means ±S.D. from a minimum of three experiments.

[2] = test system: murine and human cultured tumour cells; settings: non-toxic concentrations of indomethacin; in vitro; cited from earlier work
[3] = test system: DLKP-7 cells; test: adriamycin efflux from loaded cells, HPLC; format: cell-based
Procedure: DLKP-7 cells were seeded into 75 cm^2 flasks at 0.5×10^6 cells/10 ml ATCC medium. The cells were left for 2 days, the ATCC medium was removed and fresh medium containing adriamycin (0.5 μg/ml) was added. Following a 2 hour incubation this medium was removed, the flasks were washed twice with PBS, 10 ml ATCC medium or ATCC medium containing the test NSAID was added, and the cells were incubated for a further 4 hr. The cells were trypsinised and the pellet was frozen at −20° C. Duplicate flasks for each time point were prepared. The NSAIDs used were indomethacin 10 μg/ml and piroxicam 20 μg/ml.
The amount of adriamycin in the cells was quantified using liquid-liquid extraction and reverse-phase HPLC analysis. The frozen cell pellets were thawed and resuspended in […] of water/100 μl of 33% silver nitrate and mixed for 5 min. 300 μl of methanol, containing 1.5 μg of daunorubicin as an internal standard (IS), and 1.3 ml of acetonitrile were then added and the tubes mixed for a further 5 min. The mixture was transferred to glass tubes and kept at 4° C. for 1 hr. The tubes were then centrifuged at 1000 g for 15 min. to pellet any solid material. 1.1 ml of the supernatant was removed to HPLC autosampler vials (Labquip, Dublin, Ireland). The solvent was evaporated off at room temperature under a stream of nitrogen gas.
The extract was resuspended in 50 μl of mobile phase 1 (MP1): 32 ml of 0.1 M phosphoric acid mixed with 244 ml of ultrapure water, pH: 2.3 (adjusted upwards with a few drops of 1N potassium hydroxide) to which 124 ml of acetonitrile was added and the final mixture was degassed in a sonicating bath for 5 min. The second mobile phase (MP2) consisted of acetonitrile. The resuspended sample (20 μl) was automatically injected into the HPLC system. The HPLC system comprised a Beckman System Gold 507 autosampler, 125 pump and 166 detector. The MP was pumped through a C18 reversed-phase Prodigy 5 μm particle size ODS-3 column (Phenomenex, Macclesfield, England) (dimensions 150×4.6mm) and absorbance was measured at 253 nm. For the first 14 min. of the chromatographic run MP 1 was pumped at 0.5 ml/min. From 14 min. to 20 min. the column was switched to MP 2. At 20 min. the column was switched back to MP 1 and the flow rate increased to 1 ml/min. At 30 min. the flow rate was brought back to 0.5 ml/min. The run continued for a further 5 min. giving a total run time of 35 min. The amount of adriamycin present was quantified by measuring its peak area and the peak area of the IS. The peak area of the adriamycin was divided by the area of the IS peak and the ratio plotted against a concentration series for spiked adriamycin samples.

[4] = test system: COR L23 P (non-MRP) cells; settings: doxorubicin 10 mg/ml alone or with sulindac 20 mg/ml, 1, 2, 4 h, FIG. 4
Procedure: (§1) 10^6 COR L23 P (parental non-MRP resistant, MRP−) or COR L23 R (MRP resistant, MRP+) cells were added to 75 cm^3 vented flasks containing HEPES buffered Rosemount Park Memorial Institute (RPMI) medium and maintained at 37° C. in a 5% CO2 atmosphere. […] After three days of growth, doxorubicin (final concentration 10 mg/ml), sulindac (final concentration 20 mg/ml) or doxorubicin and sulindac were added to individual flasks. Samples were taken after 1, 2 and 4 h. and assayed for drug content.
(§2) The contents of each flask were washed twice with 5 ml of PBS and stored at −70° C. The flasks were thawed and 100 μl of water and 100 μl of 33% silver nitrate added to each and mixed for 5 min. […]
(§3) The extract was resuspended in 50 μl of methanol in the sample vial and loaded into the HPLC autosampler. […] The mobile phases were pumped through a C18 reversed-phase Ultrasphere XL (Beckman) HPLC column (4.6×70 mm) with absorbance measured at 253 nm. […] The amount of doxorubicin and sulindac present was quantified by measuring the peak height of these drugs and the internal standard. […] The concentration of doxorubicin in the samples was calculated from the) nd development standard line using the peak height ratio. The sulindac concentrations were calculated by the same method.

[5] = test system: COR L23 R (MRP+) cells; settings: doxorubicin 10 mg/ml alone or with sulindac 20 mg/ml, 1, 2, 4 h, FIG. 3
Procedure: as §1, §2, §3

[6] = test system: DLKP-A cell line; test: miniaturised in vitro colorimetric cell survival assay, P-170 overexpressing DLKP-A; format: cell-based, human
Procedure: All the results presented in this Example for the DLKP, A549 and OAW42-SR cell lines were derived using the same miniaturised in vitro calorimetric assay system. On Day 1 of the assay 1000 cells/well/100 μl were plated into 96-well plates. Cells were allowed to attach overnight and cell viability was visually assessed. On Day 2 the two drugs (i.e. NSAID plus chemotherapeutic drug) to be analysed were added onto the cells. The individual drugs were added separately in 50 μl quantities (4× stocks, to take into account the dilution effect of having 200 μl final volume in each well). The drugs were left on the cells for five further days (Day 7) and cell number was determined using the acid phosphatase end-point assay which uses p-nitrophenol phosphate as substrate (Martin, A. and Clynes, M. (1991) In Vitro Dev. Biol., 27A, 183-184). On Day 7 the culture medium was removed from the cells and they were washed once with phosphate buffered saline (PBS). After washing, 100 μl of freshly prepared substrate-containing buffer (0.1% Triton X-100 in 0.1M sodium acetate, pH 5.5) was added to each well and the plates were left in an incubator at 37° C. for 2 h. After the incubation period 50 μl of 1N NaOH was added to each well to develop the colour. The plates were then read at 405 nm (reference 620 nm) on an ELISA plate-reader.
In the results given below the % cell survival in the drug-free control is 100%. All results are the cell survival means ±S.D. from a minimum of three experiments.
v) is an example of a positive NSAID plus a positive drug on a P-170 overexpressing cell line: DLKP-A;

| SMILES | % cell survival ([1]; vi) Indomethacin 0.625 μg/ml) [%] | % cell survival ([1]; vi) Indomethacin 1.25 μg/ml) [%] | % cell survival ([1]; vi) Indomethacin 2.5 μg/ml) [%] | enhancement of VP-16 sensitivity [2] | % Adriamycin content at 0 h ([3]; cells loaded with adriamycin 0.5 μg/ml 2 h, indomethacin 10 μg/ml, piroxicam 20 μg/ml, 0 h) [%] | % Adriamycin content at 4 h ([3]; cells loaded with adriamycin 0.5 μg/ml 2 h, indomethacin 10 μg/ml, piroxicam 20 μg/ml, 4 h) [%] | level of adriamycin within the treated cells ([3]; during the 4 hours of the experiment) | doxorubicin level in the cells [4] | doxorubicin level in the cells [5] | % cell survival ([6]; v) Sulindac 1.5 μg/ml, alone or + Vincristine 1.0 μg/ml) [%] | % cell survival ([6]; v) Sulindac 3 μg/ml, alone or + Vincristine 1.0 μg/ml) [%] | % cell survival ([6]; v) Sulindac alone (concentration not given) or Sulindac 6 μg/ml + Vincristine 1.0 μg/ml) [%] |
| --- | --- | --- | --- | --- | --- | --- | --- | --- | --- | --- | --- | --- |
| COc1ccc2c(c1)c(CC(=O)O)c(C)n2C(=O)c1ccc(Cl)cc1 [Indomethacin, indomethacin] | 99.26 ± 3.7 | 97.67 ± 1.3 | 95.60 ± 3.3 | enhanced the VP-16 sensitivity of a variety of cancer cell lines | 100 | 109 ± 4 | remained constant during the 4 hours of the experiment |  |  |  |  |  |
| CC1=C(CC(=O)O)c2cc(F)ccc2/C1=C\c1ccc([S+](C)[O-])cc1 (stereo not drawn) [Sulindac, sulindac] |  |  |  |  |  |  |  | regardless of the co-treatment with sulindac | the doxorubicin level in the cells is increased to near that found in the MRP—cells | 108.9 ± 8.0 | 86.30 ± 13.7 | 105.7 ± 5.2 |
